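Growth conditions: 96-well plates. Treatment: test compound, 48 hours, 5 concentrations. Analysis: linear interpolation between bracketing concentrations; unreached endpoints set to highest concentration. GI50: concentration for 50% inhibition of growth.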 Calls of active or inactive are those of the source. Cut-off read from the data, not from the text of the source: active = GI50 up to about 1.1 µM and inactive = higher.
What was measured:
Assay in all cases: inhibition of tumour cell growth, NCI panel, 48 h
786-0 = test system: 786-0
A498 = test system: A498
A549 = test system: A549
ACHN = test system: ACHN
BT-549 = test system: BT-549
CAKI-1 = test system: CAKI-1
CCRF-CEM = test system: CCRF-CEM
COLO 205 = test system: COLO 205
DU-145 = test system: DU-145
EKVX = test system: EKVX
HCT-116 = test system: HCT-116
HCT-15 = test system: HCT-15
HL-60 = test system: HL-60
HOP-62 = test system: HOP-62
HOP-92 = test system: HOP-92
HT-29 = test system: HT-29
Hs-578T = test system: Hs-578T
IGROV-1 = test system: IGROV-1
K562 = test system: K562
KM12 = test system: KM12
M14 = test system: M14
MCF7 = test system: MCF7
MDA-MB-231 = test system: MDA-MB-231
MDA-MB-435 = test system: MDA-MB-435
MDA-N = test system: MDA-N
MOLT-4 = test system: MOLT-4
Malme-3M = test system: Malme-3M
NCI-H226 = test system: NCI-H226
NCI-H23 = test system: NCI-H23
NCI-H460 = test system: NCI-H460
NCI-H522 = test system: NCI-H522
NCI/ADR-RES = test system: NCI/ADR-RES
OVCAR-3 = test system: OVCAR-3
OVCAR-4 = test system: OVCAR-4
OVCAR-5 = test system: OVCAR-5
OVCAR-8 = test system: OVCAR-8
PC-3 = test system: PC-3
RPMI-8226 = test system: RPMI-8226
RXF 393 = test system: RXF 393
SF-268 = test system: SF-268
SF-295 = test system: SF-295
SF-539 = test system: SF-539
SK-MEL-28 = test system: SK-MEL-28
SK-MEL-2 = test system: SK-MEL-2
SK-MEL-5 = test system: SK-MEL-5
SK-OV-3 = test system: SK-OV-3
SN12C = test system: SN12C
SNB-19 = test system: SNB-19
SNB-75 = test system: SNB-75
SR = test system: SR
SW-620 = test system: SW-620
T47D = test system: T47D
U-251 = test system: U-251
UACC-257 = test system: UACC-257
UACC-62 = test system: UACC-62
UO-31 = test system: UO-31
LOX IMVI = test system: LOX IMVI
TK-10 = test system: TK-10

Structure (SMILES): CC(C)c1nc2c(Cl)c3ncccc3cc2[nH]c1=O
- GI50 (786-0): > 100 µM (inactive)
- GI50 (A498): > 100 µM (inactive)
- GI50 (A549): > 100 µM (inactive)
- GI50 (ACHN): 44 µM (inactive)
- GI50 (BT-549): 54.5 µM (inactive)
- GI50 (CAKI-1): 94.6 µM (inactive)
- GI50 (CCRF-CEM): 46.2 µM (inactive)
- GI50 (COLO 205): > 100 µM (inactive)
- GI50 (DU-145): > 100 µM (inactive)
- GI50 (EKVX): 9.71 µM (inactive)
- GI50 (HCT-116): > 100 µM (inactive)
- GI50 (HCT-15): 74 µM
- GI50 (HL-60): 50.4 µM (inactive)
- GI50 (HOP-62): 32.7 µM (inactive)
- GI50 (HOP-92): > 100 µM (inactive)
- GI50 (HT-29): > 100 µM (inactive)
- GI50 (Hs-578T): 25.8 µM (inactive)
- GI50 (IGROV-1): 14.8 µM (inactive)
- GI50 (K562): > 100 µM (inactive)
- GI50 (KM12): 80.4 µM (inactive)
- GI50 (M14): > 100 µM (inactive)
- GI50 (MCF7): > 100 µM (inactive)
- GI50 (MDA-MB-231): 73.6 µM (inactive)
- GI50 (MDA-MB-435): > 100 µM (inactive)
- GI50 (MDA-N): > 100 µM (inactive)
- GI50 (MOLT-4): 29.6 µM (inactive)
- GI50 (Malme-3M): > 100 µM (inactive)
- GI50 (NCI-H226): 65.9 µM (inactive)
- GI50 (NCI-H23): 80.2 µM (inactive)
- GI50 (NCI-H460): 88.1 µM (inactive)
- GI50 (NCI-H522): 16.7 µM (inactive)
- GI50 (NCI/ADR-RES): 37.8 µM (inactive)
- GI50 (OVCAR-3): > 100 µM (inactive)
- GI50 (OVCAR-4): 67.8 µM (inactive)
- GI50 (OVCAR-5): > 100 µM (inactive)
- GI50 (OVCAR-8): 29.2 µM (inactive)
- GI50 (PC-3): > 100 µM (inactive)
- GI50 (RPMI-8226): > 100 µM (inactive)
- GI50 (RXF 393): > 100 µM (inactive)
- GI50 (SF-268): 34.1 µM (inactive)
- GI50 (SF-295): > 100 µM (inactive)
- GI50 (SF-539): > 100 µM (inactive)
- GI50 (SK-MEL-28): > 100 µM (inactive)
- GI50 (SK-MEL-2): > 100 µM (inactive)
- GI50 (SK-MEL-5): 73.6 µM (inactive)
- GI50 (SK-OV-3): > 100 µM (inactive)
- GI50 (SN12C): > 100 µM (inactive)
- GI50 (SNB-19): > 100 µM (inactive)
- GI50 (SNB-75): 26.4 µM (inactive)
- GI50 (SR): > 100 µM (inactive)
- GI50 (SW-620): > 100 µM (inactive)
- GI50 (T47D): 70.5 µM (inactive)
- GI50 (U-251): 73.3 µM (inactive)
- GI50 (UACC-257): > 100 µM (inactive)
- GI50 (UACC-62): > 100 µM (inactive)
- GI50 (UO-31): > 100 µM (inactive)

Structure (SMILES): O=C1c2ccccc2-c2ccc(NC(=O)C3CCCCC3C(=O)O)cc21 (centres undefined)
- GI50 (786-0): > 100 µM (inactive)
- GI50 (A498): > 100 µM (inactive)
- GI50 (A549): > 100 µM (inactive)
- GI50 (ACHN): > 100 µM (inactive)
- GI50 (BT-549): > 100 µM (inactive)
- GI50 (CAKI-1): > 100 µM (inactive)
- GI50 (CCRF-CEM): > 100 µM (inactive)
- GI50 (COLO 205): > 100 µM (inactive)
- GI50 (DU-145): > 100 µM (inactive)
- GI50 (EKVX): > 100 µM (inactive)
- GI50 (HCT-116): > 100 µM (inactive)
- GI50 (HCT-15): > 100 µM
- GI50 (HL-60): > 100 µM (inactive)
- GI50 (HOP-62): > 100 µM (inactive)
- GI50 (HOP-92): > 100 µM (inactive)
- GI50 (HT-29): 87.3 µM (inactive)
- GI50 (Hs-578T): > 100 µM (inactive)
- GI50 (IGROV-1): > 100 µM (inactive)
- GI50 (K562): > 100 µM (inactive)
- GI50 (KM12): > 100 µM (inactive)
- GI50 (LOX IMVI): > 100 µM (inactive)
- GI50 (M14): > 100 µM (inactive)
- GI50 (MCF7): 85.5 µM (inactive)
- GI50 (MDA-MB-231): > 100 µM (inactive)
- GI50 (MDA-MB-435): > 100 µM (inactive)
- GI50 (MDA-N): > 100 µM (inactive)
- GI50 (MOLT-4): > 100 µM (inactive)
- GI50 (Malme-3M): > 100 µM (inactive)
- GI50 (NCI-H226): > 100 µM (inactive)
- GI50 (NCI-H23): > 100 µM (inactive)
- GI50 (NCI-H460): > 100 µM (inactive)
- GI50 (NCI-H522): > 100 µM (inactive)
- GI50 (NCI/ADR-RES): > 100 µM (inactive)
- GI50 (OVCAR-3): > 100 µM (inactive)
- GI50 (OVCAR-4): > 100 µM (inactive)
- GI50 (OVCAR-5): > 100 µM (inactive)
- GI50 (OVCAR-8): > 100 µM (inactive)
- GI50 (PC-3): > 100 µM (inactive)
- GI50 (RPMI-8226): > 100 µM (inactive)
- GI50 (RXF 393): > 100 µM (inactive)
- GI50 (SF-268): > 100 µM (inactive)
- GI50 (SF-295): > 100 µM (inactive)
- GI50 (SF-539): > 100 µM (inactive)
- GI50 (SK-MEL-28): > 100 µM (inactive)
- GI50 (SK-MEL-2): > 100 µM (inactive)
- GI50 (SK-MEL-5): > 100 µM (inactive)
- GI50 (SK-OV-3): > 100 µM (inactive)
- GI50 (SN12C): 96.4 µM (inactive)
- GI50 (SNB-19): > 100 µM (inactive)
- GI50 (SNB-75): > 100 µM (inactive)
- GI50 (SR): > 100 µM (inactive)
- GI50 (SW-620): > 100 µM (inactive)
- GI50 (T47D): > 100 µM (inactive)
- GI50 (TK-10): > 100 µM (inactive)
- GI50 (U-251): > 100 µM (inactive)
- GI50 (UACC-257): > 100 µM (inactive)
- GI50 (UACC-62): > 100 µM (inactive)
- GI50 (UO-31): > 100 µM (inactive)
